Reference: PubChem BioAssay (NCI)
Values joined by “and” are separate entries in the source; they are usually repeats but may differ in a detail not shown here. Equal values may be shown once.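 A five-concentration, 48-hour dose response in 96-well plates underlies each endpoint, interpolated linearly between surrounding concentrations. At the GI50, growth is halved. TGI marks complete inhibition of growth.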

Experiments:
Assay in all cases: DTP human tumour cell line panel, 48 h
KM12 colon = test system: KM12 colon
HCC-2998 colon = test system: HCC-2998 colon
MALME-3M melanoma = test system: MALME-3M melanoma
SF-268 CNS = test system: SF-268 CNS
MCF7 breast = test system: MCF7 breast
OVCAR-8 ovarian = test system: OVCAR-8 ovarian
RXF 393 renal = test system: RXF 393 renal
TK-10 renal = test system: TK-10 renal
MDA-MB-435 = test system: MDA-MB-435
BT-549 breast = test system: BT-549 breast

| Compound | GI50 (KM12 colon) [µM] | TGI (KM12 colon) | GI50 (HCC-2998 colon) [µM] | TGI (HCC-2998 colon) | GI50 (MALME-3M melanoma) [µM] | TGI (MALME-3M melanoma) [µM] | GI50 (SF-268 CNS) [µM] | TGI (SF-268 CNS) [µM] | GI50 (MCF7 breast) [µM] | TGI (MCF7 breast) [µM] | GI50 (OVCAR-8 ovarian) [µM] | TGI (OVCAR-8 ovarian) [µM] | GI50 (RXF 393 renal) [µM] | TGI (RXF 393 renal) [µM] | TGI (TK-10 renal) [µM] | TGI (MDA-MB-435) [µM] | TGI (BT-549 breast) [µM] | GI50 (TK-10 renal) [µM] | GI50 (MDA-MB-435) [µM] |
| --- | --- | --- | --- | --- | --- | --- | --- | --- | --- | --- | --- | --- | --- | --- | --- | --- | --- | --- | --- |
| O.O=[Se](=O)(O)O.[NH-]C1CCCCC1[NH-].[Pt+2] (stereo unspecified) | 47.2 | > 100 µM | > 46.1 | > 100 µM | 8.23 | 44 | 8.09 | > 100 | 3.49 | > 47.1 | 7.55 | > 100 | 4.63 | 30.5 |  |  |  |  |  |
| Cn1c(=O)c2[nH]cnc2n(C)c1=O |  | > 100 µM |  | > 100 µM |  | > 100 |  |  |  | > 100 |  | > 100 |  |  | > 100 |  |  |  |  |
| C#Cc1ccccc1C(=O)OC |  | > 100 µM |  | > 100 µM |  | > 100 |  |  |  |  |  | > 100 |  | > 100 | > 100 |  |  |  |  |
| COC(=O)C[C@H]1[C@]2(C)C3=C(C)[C@H](c4ccoc4)CC3O[C@@H]2[C@@H]2OC(=O)[C@]3(C)CCC(=O)[C@@]1(C)[C@@H]23 (stereo partly specified) |  | > 100 µM |  |  |  | > 100 |  | > 100 |  | > 100 |  | > 100 |  | > 100 |  | > 100 | > 100 |  |  |
| COc1cc(/C=C/C=C2\CC(C)C/C(=C\C=C\c3ccc(O)c(OC)c3)C2=O)ccc1O (stereo unspecified) |  | > 100 µM |  | > 100 µM |  | 31.1 |  | > 100 |  | 42 |  | 30.9 |  |  | 16 | 41 | 27.3 |  |  |
| CN(NC(=O)/C(=C/C=C/c1ccccc1)NC(=O)c1ccccc1)C1=C(Cl)C(=O)[N+](c2ccccc2)=CC1 |  | 34 µM |  |  |  | > 100 |  | 70.4 |  | 36.3 |  | 40.3 |  | 53.8 | > 100 | 32.9 | 49.6 |  |  |
| Cc1cc(=O)[nH]c(S(=O)(=O)NC(=S)Nc2ccc(Br)cc2)n1 |  |  |  | > 100 µM |  | > 100 |  | > 100 |  |  |  | > 100 |  | > 100 | > 100 | > 100 | > 100 |  |  |
| Cc1cccc(-c2cc(=O)c3c(C)ccnc3[nH]2)c1 |  | 16.8 µM |  | 11.1 µM |  |  |  | > 100 |  | > 42.2 |  | > 100 |  | > 100 | > 100 |  | > 100 |  |  |
| CC(C)(C)OC(=O)N[C@@H](Cc1ccccc1)C(=O)N1CC[C@@H](C(=O)N2[C@H]3CC4CC[C@@]3(CS2(=O)=O)C4(C)C)N1 |  | > 100 µM |  | > 100 µM |  |  |  | > 100 |  |  |  | > 100 |  | > 100 |  | > 100 | > 100 |  |  |
| O=C1/C(=C/c2ccc(Cl)c(Cl)c2)CN(C(=O)CCN2CCOCC2)C/C1=C\c1ccc(Cl)c(Cl)c1 |  | 0.137 µM and 1.27 µM and 0.326 µM | 0.773 | 3.56 µM and 2.08 µM |  |  |  |  |  | 0.159 |  |  |  |  |  | 0.0309 | 0.0487 |  |  |
| COc1cccc2c1C(=O)c1c(O)c3c(c(O)c1C2=O)C[C@](O)(C(=O)CO)CC3OC1CC(N)C(OC2CCCCO2)C(C)O1 (stereo partly specified) |  |  |  | 3.25 µM |  | 0.705 |  | 3.04 |  | 12.1 |  | 14 |  | 1.87 |  |  |  |  |  |
| CC(=O)Oc1ccc(-c2c(OC(C)=O)c(OC(C)=O)c(-c3ccc(OC(C)=O)c(OC(C)=O)c3)c(OC(C)=O)c2OC(C)=O)cc1 |  | 28.1 µM |  |  |  | 30.3 |  | 32.8 |  | 50.6 |  | 28.2 |  | 36.1 | 29.6 | 31.7 |  |  |  |
| OCC(CO)CC1COc2ccccc2O1 (stereo unspecified) |  | > 10 µM |  | > 10 µM |  | > 10 |  | > 10 |  | > 10 |  | > 10 |  | > 10 | > 10 | > 10 |  |  |  |
| c1csc(-c2csc(-c3cccs3)c2)c1 |  | > 100 µM |  | > 100 µM |  | > 100 |  | > 100 |  | 75.2 |  | > 100 |  | 74 | > 100 | > 100 |  |  |  |
| O=C(O)C1(Cc2ccc3c(c2)CCC3)Cc2cc3c(cc2C1)CCC3 |  | > 100 µM |  | > 100 µM |  | > 100 |  | > 100 |  | > 100 |  | > 100 |  |  | > 100 | > 100 | > 100 |  |  |
| COc1ccc(N2C(=O)CSC2c2cc(OC)c(OC)c(OC)c2)cc1 (stereo unspecified) |  | 32.9 µM |  | 39.9 µM |  | 97.7 |  | > 100 |  | > 100 |  | > 100 |  |  | > 100 | 85.2 | 52.1 |  |  |
| Brc1ccc2[nH]cc(-c3nc(-c4c[nH]c5ccncc45)cs3)c2c1 |  |  | 1.98 | 3.6 µM | 2.14 | 3.72 |  |  |  |  |  |  | 1.49 | 2.87 | 3.9 | 3.06 |  | 2.33 | 1.66 |
| COc1ccc(/C(Cl)=C(\C=O)c2ccc(Cl)cc2)cc1 |  |  |  | > 100 µM |  | > 100 |  | 58.7 |  |  |  | 45.6 |  | 57.3 | > 100 |  |  |  |  |
| CCOc1cc(C=Nc2ccc(Oc3ccc(Cl)cc3)c(Cl)c2)ccc1O |  | 39 µM |  | 43.4 µM |  | 52.6 |  | 32 |  | > 100 |  | 65.4 |  |  | > 100 | > 100 | 52 |  |  |
